Assay results reported in patent publication EP3057951B1, “METHYLENE LINKED QUINOLINYL MODULATORS OF ROR-GAMMA-T” (Janssen Pharmaceutica NV, priority 2013, dated 2015).
“And” between values parts separate entries of the source, which are not always exact repeats. Equal entries are not always repeated. Where two headings read alike, the source gives them in different places.

Experiments:
[1] = molecular target: T1, wild type human RORγt LBD (Homo sapiens, UniProt P51449); test: RORγt (LBD) Reporter Assay (GAL4-luciferase, HEK293T cells); assay type: cell-based; conditions: for inhibition at 6 µM: HEK-293T, read-out: RORγt (LBD) Reporter Assay, % inhibition @ 6 µM, 6 µM compound concentration; for RORγt (LBD) Reporter Assay, % inhibition @ 6 µM: 6 µM compound concentration
T1 construct: expressed in transfected cells; host or cells: HEK293T
T1 sequence (P51449 258-518): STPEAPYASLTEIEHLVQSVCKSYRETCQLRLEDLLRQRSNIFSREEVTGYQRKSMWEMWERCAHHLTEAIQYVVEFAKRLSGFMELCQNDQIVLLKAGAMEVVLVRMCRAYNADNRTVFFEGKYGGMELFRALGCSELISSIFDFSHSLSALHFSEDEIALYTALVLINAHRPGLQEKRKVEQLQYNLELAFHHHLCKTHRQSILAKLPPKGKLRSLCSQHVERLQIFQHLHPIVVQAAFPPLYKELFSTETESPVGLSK

[2] = molecular target: T2, wild type human RORγt ligand binding domain (RORyt LBD) (Homo sapiens, UniProt P51449); test: RORγt ThermoFluor assay (thermal shift, binding affinity KD)
T2 construct: His-tag (N); TurboTEV protease cleavage site (ENLYFQG) (N); made in house; host or cells: E. coli (pHIS1, modified pET vector)
T2 sequence (P51449 258-518): T1 sequence (P51449 258-518)

[3] = HEK293T cells, value after the comma with ∼, > or < could not be included in the average

| Compound | IC50 ([1]; HEK293T cells) | inhibition at 6 µM ([1]; HEK293T cells) [%] | Kd [2] [µM] | RORγt (LBD) Reporter Assay, % inhibition @ 6 µM ([1]; HEK293T cells, 6 µM) [%] | RORγt (LBD) Reporter Assay, % inhibition @ 6 µM ([1]; 6 µM) [%] | IC50 [1, 3] [µM] | inhibition at 6 µM [1] [%] | RORγt (LBD) Reporter Assay, % inhibition @ 6 µM [1] [%] |
| --- | --- | --- | --- | --- | --- | --- | --- | --- |
| Cc1cc(C(O)(c2ccc(C(F)(F)F)nc2)c2cncn2C)cc2c(Cl)c(Cc3ccc(-n4cccn4)cc3)c(N3CCC3)nc12 (single isomer, unassigned) [Example 137b, {2-Azetidin-1-yl-4-chloro-8-methyl-3-[4-(1H-pyrazol-1-yl)benzyl]quinolin-6-yl}(1-methyl-1H-imidazol-5-yl)[6-(trifluoromethyl)pyridin-3-yl]methanol] | 0.16 µM | 93 | 0.041 |  |  |  |  |  |
| COc1nc2ccc(C(O)(c3oc(C)nc3C)c3cnnn3C)cc2c(Cl)c1Cc1ccc(C(F)(F)F)cc1 (stereo not drawn) [Example 156a, (4-chloro-2-methoxy-3-(4-(trifluoromethyl)benzyl)quinolin-6-yl)(2,4-dimethylozazol-5-yl)(1-methyl-1H-1,2,3-triazol-5-yl)methanol] | 0.0066 µM | 94 | 0.00063 |  |  |  |  |  |
| COc1ccc(C(O)(c2cccnc2)c2ccc3nc(OC)c(Cc4ccc(-n5cccn5)cc4)c(Cl)c3c2)cc1OC (single isomer, unassigned) [Example 159c, (3-(4-(1H-Pyrazol-1-yl)benzyl)-4-chloro-2-methoxyquinolin-6-yl)(3,4-dimethoxyphenyl)(pyridin-3-yl)methanol] | 0.051 µM |  | 0.014 | 105 |  |  |  |  |
| COc1nc2ccc(C(O)(c3ccc(Cl)cc3)c3cncn3C)cc2c(C#N)c1Cc1ccc(C(F)(F)F)cc1 (single isomer, unassigned) [Example 55c, 6-((4-Chlorophenyl)(hydroxy)(1-methyl-1H-imidazol-5-yl)methyl)-2-methoxy-3-(4-(trifluoromethyl)benzyl)quinoline-4-carbonitrile] |  |  | 0.0045 |  | 100 | 0.093 |  |  |
| COc1c(Cc2ccccc2)c(C(F)(F)F)nc2ccc(C(O)(c3ccc(C(F)(F)F)nc3)c3cncn3C)cc12 (single isomer, unassigned) [Example 106b, (3-Benzyl-4-methoxy-2-(trifluoromethyl)quinolin-6-yl)(1-methyl-1H-imidazol-5-yl)(6-(trifluoromethyl)pyridin-3-yl)methanol] |  |  | 0.11 |  | 94 | 0.67 |  |  |
| COc1nc2ccc(C(O)(c3cccnc3)c3cccc(F)c3)cc2c(Cl)c1Cc1ccc(-n2cccn2)cc1 (stereo not drawn) [Example 61, (3-(4-(1H-Pyrazol-1-yl)benzyl)4-chloro-2-methoxyquinolin-6-yl)(3-fluorophenyl)(pyridin-3-yl)methanol] |  |  | 0.012 |  |  | 0.083 | 99 |  |
| Cn1cncc1C(O)(c1ccc(C(F)(F)F)nc1)c1ccc2nc(N3CCCC3)c(Cc3ccc(-n4cccn4)cc3)c(Cl)c2c1 (single isomer, unassigned) [Example 145b, {4-Chloro-3-[4-(1H-pyrazol-1-yl)benzyl]-2-pyrrolidin-1-ylquinolin-6-yl}(1-methyl-1H-imidazol-5-yl)[6-(trifluoromethyl)pyridin-3-yl]methanol] | 0.23 µM | 102 | 0.08 |  |  |  |  |  |
| Cn1cc(-c2nc3ccc(C(O)(c4ccc(C(F)(F)F)nc4)c4cncn4C)cc3c(Cl)c2Cc2ccccc2)cn1 (single isomer, unassigned) [Example 111b, (3-Benzyl-4-chloro-2-(1-methyl-1H-pyrazol-4-yl)quinolin-6-yl)(1-methyl-1H-imidazol-5-yl)(6-(trifluoromethyl)pyridin-3-yl)methanol] |  |  | 1.4 |  |  | ~0.9 | 99 |  |
| COc1nc2ccc(C(O)(c3cncn3C)c3cnnn3C)cc2c(Cl)c1Cc1ccc(C(F)(F)F)cc1 (racemic) [Example 89a, (4-Chloro-2-methoxy-3-(4-(trifluoromethyl)benzyl)quinolin-6-yl)(1-methyl-1H-1,2,3-triazol-5-yl)(1-methyl-1H-imidazol-5-yl)methanol] |  |  | 0.00029 |  |  | 0.0048 | 98 |  |
| COc1nc2ccc(C(O)(c3ccc(F)cc3)C3CCN(C(C)=O)CC3)cc2c(Cl)c1Cc1ccc(-n2cccn2)cc1 (single isomer, unassigned) [Example 157b, 1-(4-((3-(4-(1H-Pyrazol-1-yl)benzyl)4-chloro-2-methoxyquinolin-6-yl)(4-fluorophenyl)(hydroxy)methyl)piperidin-1-yl)ethanone] | 0.034 µM | 102 | 0.0017 |  |  |  |  |  |
| COC1CN(c2nc3ccc(C(O)(c4ccc(C(F)(F)F)nc4)c4cncn4C)cc3c(Cl)c2Cc2ccc(-n3cccn3)cc2)C1 (single isomer, unassigned) [Example 133c, {4-Chloro-2-(3-methoxyazetidin-1-yl)-3-[4-(1H-pyrazol-1-yl)benzyl]quinolin-6-yl}(1-methyl-1H-imidazol-5-yl)[6-(trifluoromethyl)pyridin-3-yl]methanol] | 1.2 µM |  | 12 | 82 |  |  |  |  |
| COc1nc2ccc(C(O)(c3sc(C)nc3C)c3cnnn3C)cc2cc1Cc1ccc(C(F)(F)F)cc1 (single isomer, unassigned) [Example 92c, (2,4-Dimethylthiazol-5-yl)(2-methoxy-3-(4-(trifluoromethyl)benzyl)quinolin-6-yl)(1-methyl-1H-1,2,3-triazol-5-yl)methanol] |  |  | 0.019 |  | 96 | 0.03 |  |  |
| COc1nc2ccc(C(O)(c3cnnn3C)c3cnc(C)n3C)cc2c(C#N)c1Cc1ccc(C(F)(F)F)nc1 (single isomer, unassigned) [Example 44c, 6-((1,2-Dimethyl-1H-imidazol-5-yl)(hydroxy)(1-methyl-1H-1,2,3-triazol-5-yl)methyl)-2-methoxy-3-((6-(trifluoromethyl)pyridin-3-yl)methyl)quinoline-4-carbonitrile] |  |  | 0.009 |  |  | 0.019 |  | 99 |
| Cc1ccc(C(O)(c2ccc3nc(N4CCC4)c(Cc4ccc(C(F)(F)F)cc4)c(Cl)c3c2)c2cnnn2C)c(C)n1 (single isomer, unassigned) [Example 140c, {2-Azetidin-1-yl-4-chloro-3-[4-(trifluoromethyl)benzyl]quinolin-6-yl}(2,6-dimethylpyridin-3-yl)(1-methyl-1H-1,2,3-triazol-5-yl)methanol] | 0.00066 µM and ~0.001 µM |  | 0.00015 | 99 |  |  |  |  |
| Cc1nc2ccc(C(O)(c3ccc(C(F)(F)F)nc3)c3cncn3C)cc2c(Cl)c1Cc1ccc(C(F)(F)F)cc1 (stereo not drawn) [Example 26a, (4-Chloro-2-methyl-3-(4-(trifluoromethyl)benzyl)quinolin-6-yl)(1-methyl-1H-imidazol-5-yl)(6-(trifluoromethyl)pyridin-3-yl)methanol] |  |  | 0.0031 |  |  | 0.033 | 101 |  |
| COc1nc2ccc(C(O)(c3ccc(C)nc3C)c3cnnn3C)cc2c(Cl)c1Cc1ccc(S(C)(=O)=O)cc1 (single isomer, unassigned) [Example 117c, (4-Chloro-2-methoxy-3-(4-(methylsulfonyl)benzyl)quinolin-6-yl)(2,6-dimethylpyridin-3-yl)(1-methyl-1H-1,2,3-triazol-5-yl)methanol] | 0.052 µM |  | 0.0055 | 101 |  |  |  |  |
| COc1c(Cc2ccccc2)c(C(F)(F)F)nc2ccc(C(O)(c3ccccn3)c3cncn3C)cc12 (single isomer, unassigned) [Example 98b, (3-Benzyl-4-methoxy-2-(trifluoromethyl)quinolin-6-yl)(1-methyl-1H-imidazol-5-yl)(pyridin-2-yl)methanol] |  |  | 2.2 |  | 74 | ~5 |  |  |
| COc1nc2ccc(C(O)(c3ccc(F)cc3)c3cncn3C)cc2c(Cl)c1Cc1ccc(-n2cccn2)cc1 (stereo not drawn) [Example 160a, (3-(4-(1H-Pyrazol-1-yl)benzyl)-4-chloro-2-methoxyquinolin-6-yl)(4-fluorophenyl)(1-methyl-1H-imidazol-5-yl)methanol] | 0.059 µM | 112 | 0.049 |  |  |  |  |  |
| COc1nc2ccc(C(O)(c3cnnn3C)c3cnc(C)n3C)cc2c(C#N)c1Cc1ccc(F)cc1 (racemic) [Example 66a, 6-((1,2-Dimethyl-1H-imidazol-5-yl)(hydroxy)(1-methyl-1H-1,2,3-triazol-5-yl)methyl)-3-(4-fluorobenzyl)-2-methoxyquinoline4-carbonitrile] |  |  | 0.00059 |  |  | 0.0082 | 90 |  |
| Cc1ccc(C(O)(c2ccc3nc(N4CC(F)(F)C4)c(Cc4ccc(C(F)(F)F)cc4)c(Cl)c3c2)c2cnnn2C)c(C)n1 (single isomer, unassigned) [Example 148b, {4-Chloro-2-(3,3-difluoroazetidin-1-yl)-3-[4-(trifluoromethyl)benzyl]quinolin-6-yl}(2,6-dimethylpyridin-3-yl)(1-methyl-1H-1,2,3-triazol-5-yl)methanol] | 0.46 µM | 97 | 0.056 |  |  |  |  |  |
| Cn1cncc1C(O)(c1ccc(C(F)(F)F)nc1)c1ccc2nc(C#N)c(Cc3ccc(F)cc3)c(C#N)c2c1 (single isomer, unassigned) [Example 53b, 3-(4-Fluorobenzyl)-6-(hydroxy(1-methyl-1H-imidazol-5-yl)(6-(trifluoromethyl)pyridin-3-yl)methyl)quinoline-2,4-dicarbonitrile] |  |  | 0.0012 |  | 32 | > 6 |  |  |
